Measured values as given in patent US7880007B2, “Bicyclic substituted phenyl piperidine modulators of muscarinic receptors” (Vertex Pharmaceuticals Incorporated, priority 2004, dated 2011).

What was measured:
Assay type in all cases: cell-based
M2 muscarinic receptor = biological target: T1, M2 muscarinic receptor (Homo sapiens, UniProt P08172); experiment: Functional mobilization of intracellular calcium (FLIPR), M2-CHO cells; details: for Emax: 100% efficacy is the maximum response obtained with the Carbachol control; for M2 Activity: M2-CHO cells, calcium mobilization (FLIPR)
T1 construct: expressed in transfected cells; host or cells: CHO (M2-CHO)
T1 sequence (P08172 1-466): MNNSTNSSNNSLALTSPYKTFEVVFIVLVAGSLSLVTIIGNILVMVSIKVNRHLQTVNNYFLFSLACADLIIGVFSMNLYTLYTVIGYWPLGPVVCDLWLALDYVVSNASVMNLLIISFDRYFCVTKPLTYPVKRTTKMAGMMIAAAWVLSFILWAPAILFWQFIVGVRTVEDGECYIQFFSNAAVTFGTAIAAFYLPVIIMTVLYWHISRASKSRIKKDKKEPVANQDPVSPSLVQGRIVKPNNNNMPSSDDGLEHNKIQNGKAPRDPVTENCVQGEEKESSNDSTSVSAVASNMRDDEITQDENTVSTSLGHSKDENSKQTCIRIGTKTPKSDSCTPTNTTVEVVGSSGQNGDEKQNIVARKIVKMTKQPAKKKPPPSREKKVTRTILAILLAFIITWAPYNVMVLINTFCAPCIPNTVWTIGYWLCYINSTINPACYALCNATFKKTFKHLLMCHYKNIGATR
Outline: (§1)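 FLIPR fluorescence (ex 488, em 540 nm) recorded 60 sec after compound addition to dye-loaded CHO cells. Agonist mode: compound alone. Antagonist mode: 15 min compound pre-incubation, then carbachol at EC80, or co-application. Efficacy expressed as % of maximal carbachol response.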

M3 muscarinic receptor = biological target: T2, M3 muscarinic receptor (Homo sapiens, UniProt P20309); experiment: Functional mobilization of intracellular calcium (FLIPR), M3-CHO cells; details: for Emax: 100% efficacy is the maximum response obtained with the Carbachol control; for M3 Activity: M3-CHO cells, calcium mobilization (FLIPR)
T2 construct: expressed in transfected cells; host or cells: CHO (M3-CHO)
Outline: as §1

M4 muscarinic receptor = biological target: T3, M4 muscarinic receptor (Homo sapiens, UniProt P08173); experiment: Functional mobilization of intracellular calcium (FLIPR), M4-CHO cells; details: for Emax: 100% efficacy is the maximum response obtained with the Carbachol control; for M4 Activity: M4-CHO cells, calcium mobilization (FLIPR)
T3 construct: expressed in transfected cells; host or cells: CHO (M4-CHO)
T3 sequence (P08173 1-479): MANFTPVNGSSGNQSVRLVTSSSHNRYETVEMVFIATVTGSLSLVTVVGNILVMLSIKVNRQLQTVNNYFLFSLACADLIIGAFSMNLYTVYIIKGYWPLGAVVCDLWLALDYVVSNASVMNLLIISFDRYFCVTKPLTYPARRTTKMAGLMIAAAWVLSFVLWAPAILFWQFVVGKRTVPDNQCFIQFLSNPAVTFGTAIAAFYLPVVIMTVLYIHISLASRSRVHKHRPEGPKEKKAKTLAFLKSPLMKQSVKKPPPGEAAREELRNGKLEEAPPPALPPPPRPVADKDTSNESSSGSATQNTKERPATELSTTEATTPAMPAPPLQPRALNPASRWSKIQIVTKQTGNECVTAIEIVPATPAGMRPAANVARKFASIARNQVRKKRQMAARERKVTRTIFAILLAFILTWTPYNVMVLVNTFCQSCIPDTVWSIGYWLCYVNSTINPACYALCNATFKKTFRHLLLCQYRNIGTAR
Outline: as §1

M1 muscarinic receptor = biological target: T4, M1 muscarinic receptor (Homo sapiens, UniProt P11229); experiment: Functional mobilization of intracellular calcium (FLIPR), M1-CHO cells; details: for Emax: 100% efficacy is the maximum response obtained with the Carbachol control; for M1 Activity: M1-CHO cells, calcium mobilization (FLIPR)
T4 construct: expressed in transfected cells; host or cells: CHO (M1-CHO)
T4 sequence (P11229 1-460): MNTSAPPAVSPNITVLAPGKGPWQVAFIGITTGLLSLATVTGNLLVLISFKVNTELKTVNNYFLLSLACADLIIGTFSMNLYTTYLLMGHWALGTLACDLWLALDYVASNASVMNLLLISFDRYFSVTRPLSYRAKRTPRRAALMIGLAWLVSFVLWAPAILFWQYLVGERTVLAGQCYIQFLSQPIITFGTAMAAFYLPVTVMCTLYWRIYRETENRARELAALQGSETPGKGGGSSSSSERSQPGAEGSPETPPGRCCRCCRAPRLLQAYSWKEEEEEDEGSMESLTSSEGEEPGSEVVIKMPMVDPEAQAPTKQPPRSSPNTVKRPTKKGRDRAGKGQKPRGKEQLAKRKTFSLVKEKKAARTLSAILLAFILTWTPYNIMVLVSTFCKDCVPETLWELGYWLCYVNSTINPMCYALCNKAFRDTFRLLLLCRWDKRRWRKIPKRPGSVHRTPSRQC
Outline: as §1

T2 sequence (P20309 whole entry): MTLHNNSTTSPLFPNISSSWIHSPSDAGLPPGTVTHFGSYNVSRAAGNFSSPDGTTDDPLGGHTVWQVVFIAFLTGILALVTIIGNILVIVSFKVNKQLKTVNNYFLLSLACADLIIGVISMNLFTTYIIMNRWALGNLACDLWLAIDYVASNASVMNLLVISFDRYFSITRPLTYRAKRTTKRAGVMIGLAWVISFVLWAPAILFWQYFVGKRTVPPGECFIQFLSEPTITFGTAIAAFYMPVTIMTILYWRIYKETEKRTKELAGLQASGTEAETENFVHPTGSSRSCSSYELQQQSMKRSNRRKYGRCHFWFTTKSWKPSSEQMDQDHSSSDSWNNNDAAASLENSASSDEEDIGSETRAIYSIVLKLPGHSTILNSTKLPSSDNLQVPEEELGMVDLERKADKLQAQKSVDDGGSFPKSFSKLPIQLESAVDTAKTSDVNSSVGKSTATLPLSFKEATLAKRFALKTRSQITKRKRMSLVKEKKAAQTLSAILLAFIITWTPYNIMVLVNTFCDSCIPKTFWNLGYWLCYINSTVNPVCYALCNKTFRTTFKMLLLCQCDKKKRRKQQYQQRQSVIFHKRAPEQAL

`COc1ccc(-c2ccc(C)cc2)cc1C1CCN([C@H]2C[C@H]3CC[C@H]2C3)CC1` [Compound 423] was tested, and the Emax (M2 muscarinic receptor) was < 25%, the “M2 Activity” value (M2 muscarinic receptor) was “+ (activity was measured to be greater than 5.0 μM)” and the Emax (M3 muscarinic receptor) was < 25%. The “M3 Activity” value (M3 muscarinic receptor) was “+ (activity was measured to be greater than 5.0 μM)”, the Emax (M4 muscarinic receptor) was 25 to 100% and the “M4 Activity” value (M4 muscarinic receptor) was “+ (activity was measured to be greater than 5.0 μM)”. For the same molecule, the Emax (M1 muscarinic receptor) was < 25% and the “M1 Activity” value (M1 muscarinic receptor) was “+ (activity was measured to be greater than 5.0 μM)”.
`Cc1ccc(F)cc1C1CCN(CC2C[C@H]3CC[C@H]2C3)CC1` (stereo partly shown) [Compound 424] was tested, and the Emax (M2 muscarinic receptor) was 25 to 100%, the “M2 Activity” value (M2 muscarinic receptor) was “++ (activity was measured to be from 1.0 μM to 5.0 μM)” and the Emax (M3 muscarinic receptor) was < 25%. For the same molecule, the “M3 Activity” value (M3 muscarinic receptor) was “+ (activity was measured to be greater than 5.0 μM)”, the Emax (M4 muscarinic receptor) was 25 to 100% and the “M4 Activity” value (M4 muscarinic receptor) was “+++ (activity was measured to be less than 1.0 μM)”. For the same molecule, the Emax (M1 muscarinic receptor) was 25 to 100% and the “M1 Activity” value (M1 muscarinic receptor) was “++ (activity was measured to be from 1.0 μM to 5.0 μM)”.
